# Data from patent publication US20110028715A1, “NOVEL ADENINE COMPOUND” (priority 2007, published 2011).
# Legend:
# OV-HM ovarian carcinoma = assay: Antitumor activity: lung metastasis in OV-HM ovarian carcinoma-bearing mouse; format: in vivo, B6C3F1 mouse; settings: Day 35
# Description: OV-HM ovarian carcinoma-bearing B6C3F1 mouse was prepared by intradermally inoculating 1×10^6 viable OV-HM cells in back skin. Tumor was surgically removed ten days after the tumor incubation under isoflurane anesthesia. On Day 11, Day 14, Day 17, Day 20, Day 24, Day 28, and Day 32, a test compound was administered via tail vein at the dose of 1 mg/kg. On Day 35, mouse was euthanized, and lung was collected from the mouse. Metastasized tumor nodules in lung was counted, and the frequency of the metastasized mice was calculated in each group.
# IFN-α = IFN-α production inducing activity in mice (plasma IFN-α by L929/2-5AS-Luc bioassay); format: in vivo, B6C3F1 mice; settings: 3 hours after 1 mg/kg intravenously via tail vein, mean ± standard deviation (n = 3)
# Description: A test compound was administered to B6C3F1 mice (Charles River Japan, Inc.) via tail vein at the dose of 1 mg/kg intravenously. After 3 hours, total blood was collected into a sample tube containing heparin. Plasma was prepared from total blood after centrifugation (3,000 rpm, 10 min, at room temperature) and stored at −20° C.
# Murine fibroblasts (L929/2-5AS-Luc), which constitutively expressed luciferase gene in which the promoter region for 2′-5′-oligoadenylate synthase was cloned, was seeded into 96-well plate at 4×10^4 cells/well, and cultured for overnight with diluted plasma or mouse IFN-α. After Luclite (Perkin Elmer) was added to the plate, the luciferase activity was measured with TopCount (Perkin Elmer).
# The concentration of IFN-α in plasma was calculated by linear regression of logarithmic transformed concentration of mouse IFN-α and the luciferase activity.
structure (smiles),measurement,setting,value
"CCOc1nc(N)c2[nH]c(=O)n(Cc3ccc(CN(C)C)cc3)c2n1 [Example 63, 6-Amino-9-(4-dimethylaminomethylbenzyl)-2-ethoxy-7,9-dihydropurin-8-one]",Frequency of metastasis,"OV-HM ovarian carcinoma; metastasized mice per group, lung, 1 mg/kg via tail vein on Days 11, 14, 17, 20, 24, 28, 32",0/6
same,Number of tumor,"OV-HM ovarian carcinoma; metastasized tumor nodules in lung, 1 mg/kg via tail vein, **p < 0.01 vs vehicle group (Wilcoxon)",0.0**
same,Mouse IFN-α,IFN-α,25.4 ± 13.9 IU/mL
